Results on 18 compounds are retold here after patent US6841720B1, “Inducible promoters” (Biogemma UK LTD, priority 1998, dated 2005).

In series [1] the test system is extracellular aPR-5 proteins. The conditions noted are these: leaf discs, cited from earlier work.
The subject of series [2] is AoPRT-L promoter-GUS fusion. In words: AoPRT-L promoter-GUS expression in transgenic tobacco (fluorimetric GUS assay). Format: in vivo, Nicotiana tabacum (cv Samsun). The conditions noted are these: for Time-dependent induction of AoPRT-L promoter-GUS fusion: treatment with 1 mM, time course; for AoPRT-L-promoter-GUS expression after infiltration of pro-oxidant: infiltrated into leaf panels, over the concentration range tested; for Induction of AoPRT-L promoter-GUS by wound signals: transgenic tobacco, summary statement; for Induction of AoPRT-L promoter-GUS fusion: root-fed 3 days, leaf cores. As for the experimental part: The AoPRT-L promoter construct (p22-GUS(INT) Bin 19) was transformed into Nicotiana tabacum (cv Samsun) using standard Agrobacterium tumefaciens-mediated transformation techniques (Draper et al., (1988): Plant Genetic Transformation and Gene Expression—A Laboratory Manual. Blackwell Scientific Publications, Oxford, UK). The expression of the GUS gene driven by the AoPRT-L promoter was analysed using assays described previously (Draper et al., (1988) supra).
Plants were sprayed once, allowed to dry and then sprayed again on the same day (day 0). After 3 or 6 days leaf cores were taken and GUS activity was measured using a standard fluorimetric assay. […] Leaf cores from tobacco harbouring the AoPRT-L promoter fusion with GUS were floated for 3 or 6 days on water containing increasing concentrations of BTH after which time GUS activity in the leaf discs was measured fluorometrically.
Wounding of tobacco leaves (using the hammer method) or infection of tobacco with Pseudomonas syringae pathovar phaseolicola induces local accumulation of the wound-related phytohormone jasmonic acid (JA) (Kenton et al., submitted; Mur et al., (1997) Trends in Microbiol 5:297-300). Leaf cores from tobacco harbouring the AoPRT-L promoter fusion with GUS were floated for 3 days on water containing increasing concentrations of JA after which time GUS activity in the leaf discs was measured using a standard fluorimetric assay. […]
(§1) In order to test whether oxidative stress is likely to induce high levels of AoPRT-L promoter-driven gene expression, H2O2 was infiltrated into leaf panels of transgenic tobacco harbouring the AoPRT-L-promoter-GUS construct (FIG. 13a). […] However, H2O2 has a limited half-life (around 10 mins—Levine et al., (1994) Cell 79: 583-593) in the apoplast, thus the experiment was repeated using a stable peroxide, t-butyl-hydroperoxide (FIG. 13b).

The test system of a further series is AoPRT-L-GUS. In words: AoPRT-L-GUS expression in transgenic maize. The following applies: treated with SA or BTH. Format: in vivo, Zea mays. The text has this: Maize plants containing AoPRT-L-GUS were produced by biolistic transformation of callus material with pJIT60-P22 GUS int.
The next series relates to PR gene promoters. The conditions noted are these: cited from earlier work.
Series [3] relates to pGB24 (pAoPRT-L-LhG4 / pOP-GUS). In words: pGB24 amplification construct GUS expression in B. napus. The class given is in vivo, B. napits. The following applies: on SA or BTH induction. The source says:
(§2) A way of increasing the activity of the AoPRT-L promoter whilst retaining tight regulation of the promoter is to use a system that will amplify expression of the AoPRT-L promoter. An amplification system was built using a transactivator (described in WO98/05789 and Moore et al., (1997) Proc. Natl. Acad. Sci. USA. 95, 379-381). The AoPRT-L promoter is linked to a synthetic transactivator (LhG4) and the target promoter of the transactivator (pOP) to the gene to be expressed. LhG4 consists of a mutated E. coli lacI gene fused to the transcriptional activator domain of the GALA from yeast. pOP910 is a minimal 35S CaMV promoter with two binding sites for the LhG4 protein. Since the transactivator can initiate multiple rounds of transcription from pOP, there is amplification of the initial signal that activated the AoPRT-L promoter.
(§3) The amplification system was constructed by the following steps. The pOP910 promoter was excised from pX-910TAG (K. Palme, Max Planck Institut fur Zuchtungsforchung, Koln, Germany) as a SstI-NcoI fragment and cloned into SstI,NcoI-cut pDH68 (pDH68 consists of a Pea Plastocyanin promoter (Pwee and Gray (1993) Plant J. 3, 437-449) linked to an intron GUS gene (D. Twell, Leicester University) cloned between the SstI and EcoRI sites of the vector pJIT30 (Guerineau et al., (1990) Plant Mol. Biol. 15, 127-136)). […]

Series [4] has the same test system. Put plainly: pGB24 amplification construct GUS expression in tobacco. Format: in vivo. The following applies: on SA or BTH induction.
Source text: as §2, §3

For a further series, the system named is AoPRT-Lx3 promoter-GUS. Put plainly: pAoPRT-Lx3-GUS expression in transgenic tobacco. Format: in vivo, samsun tobacco. The conditions noted are these: on SA or BTH induction. The text has this: In order to construct an AoPRT-L promoter that has higher expression, the region −247 bp to −133 bp was amplified from p22-JIT60 and placed twice in front of a −247 bp AoPRT-L promoter. This AoPRT-Lx3 promoter was constructed as follows: The primers below were used to PCR the 0 bp to −247 bp AoPRT-L promoter from p22-JIT60.
This fragment was cloned as a KpnI, XhoI fragment between the KpnI and SalI sites of the pUC19-derived plasmid forming pAoPRT-Lx2. The −133 bp to −247 bp pAoPRT-L fragment was then cloned as a KpnI, XhoI fragment between the KpnI and SalI sites of pAoPRT-Lx2 forming pAoPRT-Lx3 (FIG. 15c). Next the AoPRT-Lx3 promoter was cloned as an KpnI, PstI fragment into KpnI, PstI-cut p22-JIT60 forming pAoPRT-Lx3-JIT60. The pAoPRT-Lx3 was transferred from pAoPRT-L-x-JIT60 as a KpnI, BamHI fragment into KpnI, BamHI-cut p22-GUS (INT) JIT 60. Finally the resulting pAoPRT-Lx3 -GUS-CaMV poly A chimeric gene was cloned as KpnI, XhoI fragments into KpnI, SalI-cut pBin19 and transformed into samsun tobacco.

For a further series, the system named is PR-1a promoter-GUS. The following applies: transgenic tobacco, cited from earlier work; for PR-1a promoter-GUS / endogenous PR-1a expression: direct application.
Another series relates to tobacco leaf tissue. Put plainly: Visible tissue damage in infiltrated transgenic tobacco leaf panels. As for the experimental part:
as §1

The test system of series [5] is barley homologue of rice thaumatin-like protein. The conditions noted are these: 1 ppm; cited from earlier work.
The next series relates to barley aPR5. The following applies: in vivo; cited from earlier work.
The subject of a further series is AoPRT-L mRNA. In words: AoPRT-L mRNA accumulation in Asparagus (Northern hybridisation). Format: in vivo, Asparagus officinalis. The conditions noted are these: treated Asparagus. The text has this: In chopped etiolated A. officinalis seedlings (<=0.5 cm in length) the AoPRT-L transcript was detectable from 3 days after wounding (FIG. 3b).

SMILES strings stand for the structures. Read-outs that look alike come from different tables or passages of the source.

On to `O=C(O)COc1ccc(Cl)cc1Cl` [2,4 D], for which the “Induction of extracellular aPR-5 proteins” value in [1] (10 mM) was “induced”.
`O=C(O)c1ccc(O)cc1` [4hBA, 4-hydroxybenzoic acid]: the “Time-dependent induction of AoPRT-L promoter-GUS fusion” value in [2] is “inactive”.
For `CC1=CC(=O)CC(C)(C)[C@@]1(O)/C=C/C(C)=C\C(=O)O` [ABA, abscisic acid], in [2] (ABA induction vs SA), the “Level of induction relative to that observed using SA” value is given as “an order of magnitude lower”. The “AoPRT-L-promoter-GUS in leaf discs” value in series [2] (high concentration of ABA, leaf discs) was “slight increase”.
In the case of `CSC(=O)c1cccc2nnsc12` [BTH, benzo(1,2,3)thiadiazole-7-carbothoic acid S-methyl ester], in the series on AoPRT-L-GUS, the “GUS activity of AoPRT-L-GUS maize on treatment” value is reported as “exhibited GUS activity”. The “PR gene expression induced by commercial preparations” value in the series on PR gene promoters (all plants tested including arabidopsis and wheat) is listed as “very strong PR gene expression”. Moreover, the “Concentration sufficient to induce PR gene expression” value in the series with PR gene promoters (aqueous solution) was 1.2 µM. Also, the “Persistence of gene induction” value with PR gene promoters (spraying) is “at least 10 days”. The “Time of maximal gene induction after application” value with PR gene promoters (spraying) is recorded as 2 days. For the same compound, the “GUS activity of pGB24 plants vs equivalent AoPRT-L-GUS plants” value in [3] and in series [4] was “significantly greater level of GUS activity” throughout. The “BTH concentration at which BTH-induced GUS activity is observed” value in series [2] (leaf cores floated 3 or 6 days) is 1.25 µM. Besides, the “Induction of AoPRT-L promoter-driven GUS expression by foliar spray” value in [2] (sprayed twice on day 0, 20 μM BTH vs 1 mM SA, leaf cores after 3 or 6 days) is given as “as effective an inducer of GUS expression driven by the AoPRT-L promoter as was SA”. Besides, the “GUS activity of pAoPRT-Lx3-GUS plants vs equivalent AoPRT-L-GUS plants” value in the series on AoPRT-Lx3 promoter-GUS is listed as “significantly greater level of GUS activity”. In addition, the “PR-1a promoter-GUS / endogenous PR-1a expression” value in the series on PR-1a promoter-GUS was “high levels”.
In the case of `OO` [H2O2, hydrogen peroxide], the “Visible tissue damage after infiltration” value in the series on tobacco leaf tissue (in vivo) was “no visible symptoms”. In addition, the “AoPRT-L-promoter-GUS expression after infiltration of pro-oxidant” value in series [2] is on record as “failed to induce”.
With `[Cl][Hg][Cl]` [HgCl3], the “Induction of extracellular aPR-5 proteins” value in series [1] (5 mM) was “induced”.
For the compound `O=C(O)c1cc(Cl)nc(Cl)c1` [INA, dichloroisonicotinic acid], the “Expression of barley homologue of rice thaumatin-like protein” value in series [5] was “induces expression”. For the same compound, in the series on PR-1a promoter-GUS, the “PR-1a promoter-GUS / endogenous PR-1a expression” value was “high levels”.
As to `CC/C=C\C[C@H]1C(=O)CC[C@@H]1CC(=O)O` [JA, jasmonic acid], in series [2] (leaf cores floated 3 days on increasing concentrations, compared with 1 mM SA), the “Induction of AoPRT-L promoter-driven GUS activity in leaf discs” value was “failed to induce any increase”. Besides, the “Induction of AoPRT-L promoter-GUS by wound signals” value in series [2] is “not induced”. For the same compound, the “Expression of barley aPR5” value with barley aPR5 was “induces expression”.
On to `[Cl][Mn][Cl]` [MnCl2], for which the “Induction of extracellular aPR-5 proteins” value in [1] (5 mM) was “induced”.
In the case of `O=C(O)Cc1cccc2ccccc12` [NAA], in series [1] (10 mM), the “Induction of extracellular aPR-5 proteins” value is listed as “induced”.
Regarding `O=C(O)c1ccccc1O` [SA, salicylic acid], the “GUS activity of AoPRT-L-GUS maize on treatment” value with AoPRT-L-GUS is recorded as “exhibited GUS activity”. In addition, the “Induction of expression of PR gene promoters over basal levels” value with PR gene promoters (spraying, injection or root-feeding) is given as 50-1000 fold. Moreover, the “GUS activity of pGB24 plants vs equivalent AoPRT-L-GUS plants” value in series [3] and in [4] was “significantly greater level of GUS activity” throughout. Further, the “AoPRT-L mRNA accumulation” value with AoPRT-L mRNA is recorded as “accumulation was observed”. Also, the “Time after start of treatment at which induction is observable” value in series [2] (1 mM SA) amounted to 1 days. For the same compound, the “GUS activity of AoPRT-L-GUS plants as fraction of that in pPR-1a-GUS-transformed tobacco” value in [2] (SA induction) is listed as “about ⅓”. Besides, the “Induction of AoPRT-L promoter-GUS fusion” value in series [2] (0.1 mM) is given as “little induction”; in series [2] (1 mM), “Substantial induction”. Also, in series [2], the “Time-dependent induction of AoPRT-L promoter-GUS fusion” value was “clear time-dependent induction”. Also, the “GUS activity of pAoPRT-Lx3-GUS plants vs equivalent AoPRT-L-GUS plants” value with AoPRT-Lx3 promoter-GUS is reported as “significantly greater level of GUS activity”. The “PR-1a promoter-GUS / endogenous PR-1a expression” value in the series with PR-1a promoter-GUS is listed as “high levels”. In the series on PR-1a promoter-GUS, the “SA concentration at which PR-1a-GUS is clearly induced” value was 10 to 100 µM.
Turning to `CC(=O)Oc1ccccc1C(=O)O` [aspirin, acetyl-SA], in series [1] (5 mM), the “Induction of extracellular aPR-5 proteins” value was “induced”.
`O=C(O)CC(O)(CC(=O)O)C(=O)O` [citric acid]: the “Induction of extracellular aPR-5 proteins” value in [1] (5 mM) is “induced”.
`O=P(O)(O)CCCl` [ethephon]: the “Induction of extracellular aPR-5 proteins” value in series [1] (10 mM) was “induced”. In addition, the “AoPRT-L mRNA accumulation” value with AoPRT-L mRNA is reported as “not induced”.
Turning to `C=C` [ethylene], the “Induction of AoPRT-L promoter-GUS by wound signals” value in series [2] was “not induced”.
`O=C(O)C(=O)O` [oxalic acid]: the “Induction of extracellular aPR-5 proteins” value in series [1] (5 mM) was “induced”.
Turning to `[Cl-].[Na+]` [salt, NaCl], in series [2] (in vivo), the “Induced expression of the AoPRT-L-promoter-GUS construct ('Neither ... induced')” value is “Neither”.
In the case of `CC(C)(C)OO` [t-butyl-hydroperoxide], the “Visible tissue damage after infiltration” value in the series with tobacco leaf tissue (leaf panels, higher concentrations for t-butyl-hydroperoxide) is on record as “severe visible tissue damage”. Further, the “AoPRT-L-promoter-GUS expression after infiltration of pro-oxidant” value in [2] is listed as “no GUS expression was detected”.
